The text below walks through data of US11529350B2, “Tyrosine kinase non-receptor 1 (TNK1) inhibitors and uses thereof” (Sumitomo Pharma Oncology, Inc., priority 2019, dated 2022).

Some results are limits rather than exact numbers.

One assay concerns the target T1, TNK1 (Homo sapiens, UniProt Q13470).
T1 sequence (Q13470 1-666): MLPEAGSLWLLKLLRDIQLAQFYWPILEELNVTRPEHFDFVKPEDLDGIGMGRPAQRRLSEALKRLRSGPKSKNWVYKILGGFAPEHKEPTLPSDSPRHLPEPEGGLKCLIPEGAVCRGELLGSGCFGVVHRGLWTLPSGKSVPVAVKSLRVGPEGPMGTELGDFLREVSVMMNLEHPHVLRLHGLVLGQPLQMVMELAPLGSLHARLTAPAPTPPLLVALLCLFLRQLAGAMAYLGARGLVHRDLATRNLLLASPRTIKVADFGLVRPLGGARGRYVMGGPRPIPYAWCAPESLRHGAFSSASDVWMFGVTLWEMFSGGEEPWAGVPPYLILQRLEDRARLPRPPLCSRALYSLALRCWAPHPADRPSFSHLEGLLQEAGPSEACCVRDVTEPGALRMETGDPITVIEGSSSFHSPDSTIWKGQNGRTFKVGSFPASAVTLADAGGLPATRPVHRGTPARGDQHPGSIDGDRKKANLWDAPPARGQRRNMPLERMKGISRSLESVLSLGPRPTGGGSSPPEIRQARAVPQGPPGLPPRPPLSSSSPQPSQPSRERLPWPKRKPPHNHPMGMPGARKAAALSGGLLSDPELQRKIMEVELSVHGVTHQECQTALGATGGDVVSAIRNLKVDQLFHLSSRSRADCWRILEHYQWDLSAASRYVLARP
Kind of assay: TNK1 NanoBRET target engagement assay (HEK293). Format: cell-based. Further details: host or cells: HEK293. Conditions: HEK293 cells, 2 hours; read-out: NanoBRET TE Assay (HEK293) IC50. The source says:
The NanoBRET target engagement (TE) assay (Promega, Madison, Wis.) enables the interrogation of the displacement of a tracer compound in the active site of a recombinant kinase by a test compound in the intracellular setting. The assay enables simultaneous testing of permeability, solubility, and kinase inhibition, and tests the specific interaction of test agents with a kinase of interest, here, TNK1. The assay is based on the principle of bioluminescence resonance energy transfer (BRET). In the assay, a plasmid-encoded, luciferase-tagged form of TNK1 is transfected into cells. A tracer compound is tagged with a fluorophore that fluoresces when bound to the TNK1 protein. Readout is luminescence and fluorescence. Test compounds show activity by displacing the tracer, thus disrupting BRET.
Methods: The TNK1 NanoBRET TE assays were performed according to the manufacturer's protocol. Briefly, Nanoluc-TNK1 Fusion Vector (Promega, Madison, Wis., Cat. No. NV2181) was transfected into HEK293 cells in bulk (8×10^6 cells in a T175 flask). Up to 30 hours post-transfection, cells were harvested by trypsinization, resuspended at a concentration of 2×10^5 cells/mL, and seeded in 96-well plates at 85 μL/well. A test compound and the K5 tracer were added to each well, and the cells were incubated for 2 hours. Luminescence ([…]) and fluorescence ([…]) were measured to determine a BRET ratio. IC50 values were determined from the BRET ratios using the Graphpad Prism software (GraphPad Software, San Diego, Calif.).
(In general: In BRET a luciferase serves as donor, and the signal depends on an acceptor being close.)

The test system of another assay is K562 cells. Kind of assay: In-vitro cell viability assay (CellTiter-Glo), K562. It is filed as cell-based. Conditions: Homo sapiens. How it is done: Tnk1 is known to drive proliferation and survival of Hodgkin's lymphoma (HL) cells, such as K652 and L540 cell lines (Gu et al., Identification of activated Tnk1 kinase in Hodgkin's lymphoma, Leukemia 24: 861-65 ((2010)). Downregulation of Tnk1 inhibits cell growth and proliferation, and increases apoptosis. To study the individual test compounds in the context of HL cells, CellTiter-Glo® assays (Promega, Madison, Wis.) were performed according to the manufacturer's instructions. The CellTiter-Glo® assay system uses a thermostable luciferase to generate a stable “glow-type” luminescent signal while simultaneously inhibiting endogenous enzymes released during cell lysis (e.g., ATPases). As such, the assay provides a sensitive and stable luminescent output.
Reagent Preparation • 1. The CellTiter-Glo® Buffer was thawed and equilibrated to room temperature prior to use. • 2. The lyophilized CellTiter-Glo® Substrate was equilibrated to room temperature prior to use. • 3. An appropriate volume of CellTiter-Glo® Buffer was transferred into the amber bottle containing CellTiter-Glo® Substrate according the manufacturer's recommendation. The reconstituted lyophilized enzyme/substrate mixture formed the CellTiter-Glo® Reagent. • 4. The CellTiter-Glo® Reagent was mixed by gently vortexing, swirling or inverting the contents to obtain a homogeneous solution.
Protocol for the Cell Viability Assay • 1. A titration of the K652 or L540 cells was performed to determine the optimal number and ensure that the CellTiter-Glo® Assay was performed within the linear range. • 2. Opaque-walled multiwell plates (compatible with the luminometer) were prepared with K652 or L540 cells in culture medium, 100 μl per well for 96-well plates or 25 μl per well for 384-well plates. • 3. Control wells containing medium without cells were prepared to obtain a value for background luminescence. • 4. Test compound was added to experimental wells, and incubated according to culture protocol. • 5. The plate and its contents were equilibrated at room temperature for approximately 30 minutes.
Protocol for Generating an ATP Standard Curve • 1. 1 μM ATP was prepared in culture medium (100 μl of 1 μM ATP solution contains 10^−10 moles ATP). • 2. Serial tenfold dilutions of ATP in culture medium (1 μM to 10 nM; 100 μl contains 10^−10 to 10^−12 moles of ATP) were performed. • 3. A multiwell plate with varying concentrations of ATP standard in 100 μl medium (25 μl for a 384-well plate) was prepared. • 4. A volume of CellTiter-Glo® Reagent equal to the volume of ATP standard present in each well was added. • 5. Contents were mixed for 2 minutes on an orbital shaker. • 6. The plate was allowed to incubate at room temperature for 10 minutes to stabilize the luminescent signal. • 7. Luminescence was recorded.
For orientation: In ATP-based viability assays light output follows the ATP content of the culture.

As for `COc1cc(N2CCN(C)CC2)ccc1Nc1ncc(Cl)c(Nc2cccnc2N2CCCC2=O)n1` [compound 2, 1-(3-((5-chloro-2-((2-methoxy-4-(4-methylpiperazin-1-yl)phenyl)amino)pyrimidin-4-yl)amino)pyridin-2-yl)pyrrolidin-2-one], the IC50 at TNK1 was below 0.15 µM; with K562 cells, 1.5 to 6 µM.

Take `CN1CCN(c2ccc(Nc3ncc(Cl)c(Nc4cccnc4N4CCCC4=O)n3)cc2)CC1` [compound 1, 1-(3-((5-chloro-2-((4-(4-methylpiperazin-1-yl)phenyl)amino)pyrimidin-4-yl)amino)pyridin-2-yl)pyrrolidin-2-one]: the IC50 at TNK1 was below 0.15 µM; in the assay with K562 cells it was below 0.5 µM.

As to `CC(C)Oc1cc(N2CCN(C)CC2)ccc1Nc1ncc(Cl)c(Nc2cccnc2N(C)C)n1` [compound 4, 5-chloro-N^4-(2-(dimethylamino)pyridin-3-yl)-N^2-(2-isopropoxy-4-(4-methylpiperazin-1-yl)phenyl)pyrimidine-2,4-diamine], the values for the IC50 at TNK1 and in the assay on K562 cells were above 1 µM and 1.5 to 6 µM, respectively.

`CCOc1cc(N2CCN(C)CC2)ccc1Nc1ncc(Cl)c(Nc2cccnc2N(C)C)n1` [compound 3, 5-chloro-N^4-(2-(dimethylamino)pyridin-3-yl)-N^2-(2-ethoxy-4-(4-methylpiperazin-1-yl)phenyl)pyrimidine-2,4-diamine]: the IC50 at TNK1 was above 1 µM.

`CN1CCN(c2c(Cl)cc(Nc3ncc(Cl)c(Nc4cccnc4N4CCCC4=O)n3)c3ccccc23)CC1` [Example No. 18, 1-(3-((5-chloro-2-((3-chloro-4-(4-methylpiperazin-1-yl)naphthalen-1-yl)amino)pyrimidin-4-yl)amino)pyridin-2-yl)pyrrolidin-2-one]: the IC50 was below 0.15 µM at TNK1 and at least 6 µM in the assay with K562 cells.

Consider `COc1cc(N2CCN(C)CC2)c(Cl)cc1Nc1ncc(Cl)c(Nc2cccnc2N2CCCC2=O)n1` [Example No. 13, 1-(3-((5-chloro-2-((5-chloro-2-methoxy-4-(4-methylpiperazin-1-yl)phenyl)amino)pyrimidin-4-yl)amino)pyridin-2-yl)pyrrolidin-2-one], for which the IC50 is below 0.15 µM at TNK1 and 1.5 to 6 µM in the assay on K562 cells.

As for `CN1CCN(c2ccc(Nc3ncc(Cl)c(Nc4cccnc4N(C)C)n3)cc2)CC1` [compound 5, 5-chloro-N^4-(2-(dimethylamino)pyridin-3-yl)-N^2-(4-(4-methylpiperazin-1-yl)phenyl)pyrimidine-2,4-diamine], the IC50 at TNK1 was 0.15 to 1 µM; in the assay with K562 cells, 1.5 to 6 µM.

As to `COc1cc(N2CCN(C)CC2)c(C)cc1Nc1ncc(Cl)c(Nc2cccnc2N2CCNC2=O)n1` [compound 9, 1-(3-((5-chloro-2-((2-methoxy-5-methyl-4-(4-methylpiperazin-1-yl)phenyl)amino)pyrimidin-4-yl)amino)pyridin-2-yl)imidazolidin-2-one], the results for the IC50 on TNK1 and with K562 cells were below 0.15 µM and at least 6 µM, respectively.

As for `COc1cc(N2CCN(C)CC2)c(C)cc1Nc1ncc(Br)c(Nc2cccnc2N(C)C)n1` [compound 10, 5-bromo-N^4-(2-(dimethylamino)pyridin-3-yl)-N^2-(2-methoxy-5-methyl-4-(4-methylpiperazin-1-yl)phenyl)pyrimidine-2,4-diamine], the IC50 at TNK1 was below 0.15 µM; with K562 cells, at least 6 µM.

As to `COc1cc(N2CCN(C)CC2)c(Cl)cc1Nc1ncc(Cl)c(Nc2cccnc2N2CCNC2=O)n1` [Example No. 21, 1-(3-((5-chloro-2-((5-chloro-2-methoxy-4-(4-methylpiperazin-1-yl)phenyl)amino)pyrimidin-4-yl)amino)pyridin-2-yl)imidazolidin-2-one], the values for the IC50 on TNK1 and in the assay on K562 cells were below 0.15 µM and at least 6 µM, respectively.

Usually IC50 stands for the concentration that gives 50% inhibition.
